Test results reported in ChEMBL document CHEMBL1155441 (J Med Chem, 2010).

Molecular target: WD repeat-containing protein 5 (Homo sapiens, UniProt P61964)
Test: Binding affinity to WDR5 expressed in pLysS cells by optimized fluorescent polarization based competitive binding assay
Type: biochemical

Structure (SMILES) | Ki [µM] | IC50 [µM]
CC(=O)N[C@@H](C)C(=O)N[C@@H](CCCNC(=N)N)C(=O)N[C@H](C(=O)N[C@@H](CCCCN)C(=O)N[C@@H](CCC(N)=O)C(=O)N[C@H](C(=O)N[C@@H](C)C(=O)N[C@@H](CCCNC(=N)N)C(=O)N[C@@H](CCCCN)C(=O)N[C@@H](CO)C(N)=O)[C@@H](C)O)[C@@H](C)O | < 0.001 | 
CC(=O)N[C@@H](C)C(=O)N[C@@H](CCCNC(=N)N)C(=O)N(C)[C@@H](C)C(N)=O | > 50 | > 300
C[C@H](N)C(=O)N[C@@H](CCCN=C(N)N)C(=O)N[C@@H](C)C(N)=O | > 50 | > 300
